Data reported in US11220510B2, “Pyrrole tricyclic compounds as A2A / A2B inhibitors” (Incyte Corporation, priority 2018, dated 2022).

Columns and labels:
[1] = target: human adenosine A2B receptor (Homo sapiens (Human), UniProt P29275); test: Adenosine A2B Receptor Cyclic AMP GS Assay; format: cell-based; conditions: HEK-293 cells expressing human A2B; agonist NECA 12 nM; cAMP accumulation by FRET; read-out: A2B_cAMP_EC50
Description: Example B. Adenosine A2B Receptor Cyclic AMP GS Assay Stably transfected HEK-293 cells expressing the human adenosine A2B receptor (Perkin Elmer) were maintained in MEM culture medium with 10% FBS and 100 μg/ml Geneticin (Life Technologies). 18 to 24 hours prior to assay, geneticin was removed from culture. The cisbio cAMP-GS Dynamic kit utilizing the FRET (Fluorescence Resonance Energy Transfer) technology was used to measure cAMP accumulation in the cells. Compounds of the present disclosure at an appropriate concentration were mixed with 10000 cells/well in white 96 well half area plates (Perkin Elmer) for 30 min at room temperature gently shaking. Agonist, NECA (R&D Technologies) at 12 nM was added to each well for 60 min at room temperature gently shaking. Detection reagents, d2-labeled cAMP (acceptor) and anti-cAMP cryptate (donor) were added to each well for 60 min at RT gently shaking. Plates were read on Pherastar (BMG Labtech), fluorescence ratio 665/620 was calculated and EC50 determination was performed by fitting the curve of percent of control versus the log of the compound concentration using GraphPad Prism.

[2] = target: Adenosine A2A receptor (Tag-lite Adenosine A2A labeled cells) (Homo sapiens (Human), UniProt P29274); test: A2A Tag-lite HTRF assay (fluorescent ligand displacement); conditions: Red antagonist fluorescent ligand 12.5 nM, one-site competitive binding model, read-out: A2A_Ki
Adenosine A2A receptor (Tag-lite Adenosine A2A labeled cells), sequence (P29274 whole entry): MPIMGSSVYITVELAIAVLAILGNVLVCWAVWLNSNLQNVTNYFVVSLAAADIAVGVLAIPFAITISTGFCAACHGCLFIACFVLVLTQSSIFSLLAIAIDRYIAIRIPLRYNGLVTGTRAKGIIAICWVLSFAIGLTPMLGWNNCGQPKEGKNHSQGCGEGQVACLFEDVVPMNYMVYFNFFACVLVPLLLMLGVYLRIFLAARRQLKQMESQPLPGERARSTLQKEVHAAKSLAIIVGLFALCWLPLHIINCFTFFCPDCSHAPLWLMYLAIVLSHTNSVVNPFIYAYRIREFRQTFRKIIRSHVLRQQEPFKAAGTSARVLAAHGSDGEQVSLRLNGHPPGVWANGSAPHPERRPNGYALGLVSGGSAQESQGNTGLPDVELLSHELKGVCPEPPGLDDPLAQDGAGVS
Source text: Example C. A2A Tag-Lite® HTRF Assay
The final concentration of DMSO was 1%.

human adenosine A2B receptor, sequence (P29275 whole entry): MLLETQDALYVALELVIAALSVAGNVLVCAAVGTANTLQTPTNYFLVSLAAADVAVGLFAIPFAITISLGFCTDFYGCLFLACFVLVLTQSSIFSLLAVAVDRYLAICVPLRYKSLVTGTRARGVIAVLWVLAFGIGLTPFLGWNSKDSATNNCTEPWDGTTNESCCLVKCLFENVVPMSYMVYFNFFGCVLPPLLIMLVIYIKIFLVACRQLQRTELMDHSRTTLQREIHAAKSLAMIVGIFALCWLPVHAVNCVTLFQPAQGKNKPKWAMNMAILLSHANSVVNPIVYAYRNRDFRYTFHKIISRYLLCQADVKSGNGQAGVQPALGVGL

| EC50 [1] [nM] | Ki [2] [nM] | Compound |
| --- | --- | --- |
|  | 10 to 100 | CCCCCn1c2c(Br)c[nH]c2c(=O)n2c(C)nnc12 [Example 13, 8-Bromo-3-methyl-9-pentyl-6,9-dihydro-5H-pyrrolo[3,2-d][1,2,4]triazolo[4,3-a]pyrimidin-5-one] |
|  | 100 to 1000 | CCCCCn1c2c(-c3cnn(Cc4ccccc4)c3)c[nH]c2c(=O)n2c(C)nnc12 [Example 17, 8-(1-Benzyl-1H-pyrazol-4-yl)-3-methyl-9-pentyl-6,9-dihydro-5H-pyrrolo[3,2-d][1,2,4]triazolo[4,3-a]pyrimidin-5-one] |
|  | 10 to 100 | CCCCCn1c2cc[nH]c2c(=O)n2c(C)cnc12 [Example 18, 7-Methyl-4-pentyl-1H-imidazo[1,2-a]pyrrolo[3,2-d]pyrimidin-9(4H)-one] |
| 10 to 100 | < 10 | CCCCCn1c2cc(-c3cnn(Cc4cccnc4)c3)[nH]c2c(=O)n2c(C)nnc12 [Example 8, 3-Methyl-9-pentyl-7-(1-(pyridin-3-ylmethyl)-1H-pyrazol-4-yl)-6,9-dihydro-5H-pyrrolo[3,2-d][1,2,4]triazolo[4,3-a]pyrimidin-5-one] |
|  | 100 to 1000 | CCCCCn1c2c(C#N)c[nH]c2c(=O)n2c(C)nnc12 [Example 16, 3-Methyl-5-oxo-9-pentyl-6,9-dihydro-5H-pyrrolo[3,2-d][1,2,4]triazolo[4,3-a]pyrimidine-8-carbonitrile] |
|  | < 10 | CCCCCn1c2cc(-c3cnn(Cc4ccccc4)c3)[nH]c2c(=O)n2c(C)nnc12 [Example 10, 7-(1-Benzyl-1H-pyrazol-4-yl)-3-methyl-9-pentyl-6,9-dihydro-5H-pyrrolo[3,2-d][1,2,4]triazolo[4,3-a]pyrimidin-5-one] |
|  | 100 to 1000 | CCCCCn1c2c(C)c[nH]c2c(=O)n2c(C)nnc12 [Example 14, 3,8-Dimethyl-9-pentyl-6,9-dihydro-5H-pyrrolo[3,2-d][1,2,4]triazolo[4,3-a]pyrimidin-5-one] |
|  | 100 to 1000 | CCCCCn1c2cc[nH]c2c(=O)n2c(C)nnc12 [Example 1, 3-Methyl-9-pentyl-6,9-dihydro-5H-pyrrolo[3,2-d][1,2,4]triazolo[4,3-a]pyrimidin-5-one] |
|  | 100 to 1000 | CCCCCn1c2c(-c3ccccc3)c[nH]c2c(=O)n2c(C)nnc12 [Example 15, 3-Methyl-9-pentyl-8-phenyl-6,9-dihydro-5H-pyrrolo[3,2-d][1,2,4]triazolo[4,3-a]pyrimidin-5-one] |

The remaining lines, values behind:

| Compound | EC50 [1] [nM] | Ki [2] [nM] |
| --- | --- | --- |
| CCCCn1c2cc(-c3cnn(C4CN(c5nccc(OC)n5)C4)c3)[nH]c2c(=O)n2c(C)nnc12 [Example 27, 9-Butyl-7-(1-(1-(4-methoxypyrimidin-2-yl)azetidin-3-yl)-1H-pyrazol-4-yl)-3-methyl-6,9-dihydro-5H-pyrrolo[3,2-d][1,2,4]triazolo[4,3-a]pyrimidin-5-one] | 10 to 100 | < 10 |
| CCCCCn1c2cc(-c3cnn(Cc4cncc(C)c4)c3)[nH]c2c(=O)n2c(C)nnc12 [Example 3, 3-Methyl-7-(1-((5-methylpyridin-3-yl)methyl)-1H-pyrazol-4-yl)-9-pentyl-6,9-dihydro-5H-pyrrolo[3,2-d][1,2,4]triazolo[4,3-a]pyrimidin-5-one] | < 10 | < 10 |
| CCCCCn1c2cc(-c3cnn(Cc4cnc5cccnc5c4)c3)[nH]c2c(=O)n2c(C)nnc12 [Example 6, 7-(1-((1,5-Naphthyridin-3-yl)methyl)-1H-pyrazol-4-yl)-3-methyl-9-pentyl-6,9-dihydro-5H-pyrrolo[3,2-d][1,2,4]triazolo[4,3-a]pyrimidin-5-one] | 10 to 100 | < 10 |
| CCCCCn1c2cc(-c3cnn(Cc4ccn5ccnc5c4)c3)[nH]c2c(=O)n2c(C)nnc12 [Example 5, 7-(1-(Imidazo[1,2-a]pyridin-7-ylmethyl)-1H-pyrazol-4-yl)-3-methyl-9-pentyl-6,9-dihydro-5H-pyrrolo[3,2-d][1,2,4]triazolo[4,3-a]pyrimidin-5-one] | 10 to 100 | < 10 |
| CCCCCn1c2cc(-c3ccc(S(=O)(=O)Nc4ccc(C)cc4)cc3)[nH]c2c(=O)n2c(C)nnc12 [Example 11, 4-(3-Methyl-5-oxo-9-pentyl-6,9-dihydro-5H-pyrrolo[3,2-d][1,2,4]triazolo[4,3-a]pyrimidin-7-yl)-N-p-tolylbenzenesulfonamide] |  | 10 to 100 |
| CCCCCn1c2cc(-c3cnn(Cc4cnc5ccsc5c4)c3)[nH]c2c(=O)n2c(C)nnc12 [Example 4, 3-Methyl-9-pentyl-7-(1-(thieno[3,2-b]pyridin-6-ylmethyl)-1H-pyrazol-4-yl)-6,9-dihydro-5H-pyrrolo[3,2-d][1,2,4]triazolo[4,3-a]pyrimidin-5-one] | < 10 | < 10 |
| CCCCCn1c2cc(-c3cnn(C4CN(c5nccc(C#N)n5)C4)c3)[nH]c2c(=O)n2c(C)nnc12 [Example 20, 2-(3-(4-(3-Methyl-5-oxo-9-pentyl-6,9-dihydro-5H-pyrrolo[3,2-d][1,2,4]triazolo[4,3-a]pyrimidin-7-yl)-1H-pyrazol-1-yl)azetidin-1-yl)pyrimidine-4-carbonitrile] | 10 to 100 | < 10 |
| CCCCCn1c2cc(-c3cnn(Cc4cncc(Cl)c4)c3)[nH]c2c(=O)n2c(C)nnc12 [Example 2, 7-(1-((5-Chloropyridin-3-yl)methyl)-1H-pyrazol-4-yl)-3-methyl-9-pentyl-6,9-dihydro-5H-pyrrolo[3,2-d][1,2,4]triazolo[4,3-a]pyrimidin-5-one] | 10 to 100 | < 10 |
| CCCCn1c2cc(-c3cnn(C4CN(c5nccc(C)n5)C4)c3)[nH]c2c(=O)n2c(C)nnc12 [Example 26, 9-Butyl-3-methyl-7-(1-(1-(4-methylpyrimidin-2-yl)azetidin-3-yl)-1H-pyrazol-4-yl)-6,9-dihydro-5H-pyrrolo[3,2-d][1,2,4]triazolo[4,3-a]pyrimidin-5-one] | 10 to 100 | < 10 |
| CCCCCn1c2cc(-c3cnn(Cc4ccc5c(c4)CCN(C(=O)CN(C)C)C5)c3)[nH]c2c(=O)n2c(C)nnc12 [Example 30, 7-(1-((2-(2-(Dimethylamino)acetyl)-1,2,3,4-tetrahydroisoquinolin-6-yl)methyl)-1H-pyrazol-4-yl)-3-methyl-9-pentyl-6,9-dihydro-5H-pyrrolo[3,2-d][1,2,4]triazolo[4,3-a]pyrimidin-5-one] | < 10 | < 10 |
| CCCCn1c2cc(-c3cnn(C4CN(c5nccc(N)n5)C4)c3)[nH]c2c(=O)n2c(C)nnc12 [Example 28, 7-(1-(1-(4-Aminopyrimidin-2-yl)azetidin-3-yl)-1H-pyrazol-4-yl)-9-butyl-3-methyl-6,9-dihydro-5H-pyrrolo[3,2-d][1,2,4]triazolo[4,3-a]pyrimidin-5-one] | 10 to 100 | < 10 |
| CCCCCn1c2cc(-c3cnn(C4CN(c5nccc(NC)n5)C4)c3)[nH]c2c(=O)n2c(C)nnc12 [Example 23, 3-Methyl-7-(1-(1-(4-(methylamino)pyrimidin-2-yl)azetidin-3-yl)-1H-pyrazol-4-yl)-9-pentyl-6,9-dihydro-5H-pyrrolo[3,2-d][1,2,4]triazolo[4,3-a]pyrimidin-5-one] | 10 to 100 | < 10 |
| CCCCCn1c2cc(-c3cnn(C4CN(c5nccc(NCCO)n5)C4)c3)[nH]c2c(=O)n2c(C)nnc12 [Example 22, 7-(1-(1-(4-(2-Hydroxyethylamino)pyrimidin-2-yl)azetidin-3-yl)-1H-pyrazol-4-yl)-3-methyl-9-pentyl-6,9-dihydro-5H-pyrrolo[3,2-d][1,2,4]triazolo[4,3-a]pyrimidin-5-one] | 10 to 100 | < 10 |
